Experimental findings from US7514432B2, “Compounds and methods of treating cell proliferative diseases, retinopathies and arthritis” (Exonhit Therapeutics SA, priority 2003, dated 2009) are described below.

The test system of one experiment is HCT116. Nature of the experiment: Cell viability assay (MTT), HCT116. It is filed as cell-based, human. The note with it: 6-day treatment, 1% DMSO. As for the experimental part: (§1) Table 12: 6-day cell viability assay (MTT) in the presence of 10% Fetal Bovine Serum and 1% DMSO, in HMEC1, HCT116, MDA-MB-231, MCF7 and NIH3T3 cell lines. 3 10^3 to 15 10^3 cells were seeded in 48-well plates in growth medium containing 10% FBS, with or without various concentrations of test compounds. Cell cultures were fed every 3 days with the appropriate media. Cell viability was determined on day 6. Data were analyzed and IC50s were calculated from dose-response curves using GraphPad Prism. Results summarized in the tables are mean±SEM of 1 to 8 independent experiments.
(§2) Table 13: 6-day cell viability assay (MTT) in the presence of 0.5% Fetal Bovine Serum and 1% DMSO, in HCT116 and MDA-MB-231 cell lines. 7.5 10^4 to 15 10^4 cells were seeded in 48-well plates in growth medium containing 10% FBS, with or without various concentrations of test compounds. Cell cultures were fed every 3 days with the appropriate media. Cell viability was determined on day 6. Data were analyzed and IC50s were calculated from dose-response curves using GraphPad Prism. Results summarized in the tables are mean±SEM of 1 to 2 independent experiments.
(§3) Table 14: 3-day cell viability assay (MTT) in the presence of 10% Fetal Bovine Serum and 1% DMSO, in DLD1, HCT116, MDA-MB-231, MCF7 and HeLa cells. 7.5 10^3 to 1.5 10^4 cells were seeded in 48-well plates in growth medium containing 10% FBS, with or without various concentrations of test compounds. Data were analyzed and IC50s were calculated from dose-response curves using GraphPad Prism. Results summarized in the tables are mean±SEM of 1 to 7 independent experiments.
(§4) Table 15: 16-hour cell viability assay (MTT) in the presence of 10% Fetal Bovine Serum and 1% DMSO, in HCT116, MDA-MB-231, NIH3T3, HepG2 and primary hepatocytes. 5 10^4 to 10 10^4 cells were seeded in 48-well plates in growth medium containing 10% FBS, with or without various concentrations of test compounds. Data were analyzed and IC50s were calculated from dose-reponse curves using GraphPad Prism. Results summarized in the tables are mean±SEM of 1 to 2 independent experiments.
(§5) In order to determine a compound's effect on cell viability, microculture tetrazolium assays (MTT) were performed as described by Carmichael et al. (1996) with modifications. Four human tumoral cell lines, namely HCT116 colon adenocarcinoma, H460 lung carcinoma, MCF-7 and MDA-MB-231 breast carcinoma cell lines, DLD1 colorectal adenocarcinoma, HeLa adenocarcinoma, HepG2 hepatocellular carcinoma. 3 immortalized but non tumorigenic cell lines, namely NIH3T3 mouse fibroblasts (American Type Culture Collection) and primary hepatocytes (Biopredic international), cultured according to their recommendations together with Human Microvasculature Endothelial Cell line HMEC1 (National Center for Infectious Diseases). Briefly, cells were seeded in 48-well plates 24 hours before drug addition. Cells were treated with 0 to 200 μM (11 concentrations) of compound solubilized in DMSO, adjusting the final concentration of DMSO to 1% in the well. 16 hours, and three or six days after treatment, 0.5 mg/ml MTT (Sigma) was added to the medium and cells were incubated for 1-5 hours at 37° C. before solubilization of formazan crystals in 100% DMSO. Absorbance was measured using a spectrophotometer at a wavelength of 550 nm. Data was analyzed using the GraphPad Prism software (GraphPad Software, Inc.), and IC50 (dose leading to 50% cell death) was calculated from the dose-response curves.

For a further experiment, the system named is HMEC1. Nature of the experiment: Cell viability assay (MTT), HMEC1. It is filed as cell-based, Human. The settings on record: 10% FBS; for IC50: MTT, 6-day treatment, 1% DMSO. As for the experimental part:
as §1, §5

The next experiment deals with NIH 3T3. Nature of the experiment: Cell viability assay (MTT), NIH 3T3. The note with it: Mus musculus, NIH3T3, 144 h, 10% FBS, 6-day treatment, 1% DMSO. It is filed as cell-based, mouse. The procedure: as §1, §4, §5
For a further experiment, the system named is MDA-MB-231. Nature of the experiment: Cell viability assay (MTT), MDA-MB-231. It is filed as cell-based, human. The settings on record: 10% FBS, 1% DMSO. The procedure: as §1, §2, §3, §4, §5
[1] abbreviates: Homo sapiens, HCT-116, 144 h, 10% FBS.
Setting [2] is: 6-day treatment, read-out: IC50 μM, MDA-MB-231.
Setting [3] is: Homo sapiens, MDA-MB-231, 144 h, 6-day treatment, read-out: IC50 μM, MDA-MB-231.

The structures appear in SMILES notation. Where two headings read alike, the source gives them in different places.

In the experiment with HCT116 (setting [1]), `O=c1cc(CN2CCOCC2)occ1OCCCCCOc1ncnc2ccccc12` [EHT 3726, 5-(5-(Quinazolin-4-yloxy)pentyloxy)-2-(morpholinomethyl)-4H-pyran-4-one] yielded an IC50 of about 200 µM.
Turning to `O=c1cc(COC2CCCCO2)occ1OCCCCCOc1ccnc2cc(C(F)(F)F)ccc12` (centres unmarked) [EHT 3788, 2-(Tetrahydro-pyran-2-yloxymethyl)-5-[5-(7-trifluoromethyl-quinolin-4-yloxy)-pentyloxy]-pyran-4-one], the IC50 in the experiment with HMEC1 (Homo sapiens, HMEC-1, 144 h) was under 10 µM; with HMEC1, 7.1 µM; in the experiment on HCT116 (10% FBS) it was 2.1 µM; in the experiment on HCT116 (setting [1]) it was under 4 µM; in the experiment with NIH 3T3, 8.8 µM.
As to `CC(C)(C)NC(=O)N1CCN(Cc2cc(=O)c(OCCCCCSc3ccnc4cc(C(F)(F)F)ccc34)co2)CC1` [EHT 3664, 4-((5-(5-(7-(Trifluoromethyl)quinolin-4-ylthio)pentyloxy)-4-oxo-4H-pyran-2-yl)methyl)-N-tert-butylpiperazine-1-carboxamide], the IC50 with HMEC1 (Homo sapiens, HMEC-1, 144 h) was under 10 µM; with HMEC1, 10 µM; with MDA-MB-231 (setting [2]), 6.3 µM; with MDA-MB-231 (setting [3]), under 9 µM; in the experiment with NIH 3T3 it was 9.8 µM.
Turning to `CN1CCN(Cc2cc(=O)c(OCCCCCOc3ccnc4c(C(F)(F)F)cccc34)co2)CC1` [EHT 5847, 5-(5-(8-(Trifluoromethyl)quinolin-4-yloxy)pentyloxy)-2-((4-methylpiperazin-1-yl)methyl)-4H-pyran-4-one], the IC50 was 31.6 µM with HMEC1 (Homo sapiens, HMEC-1, 144 h) and 6.1 µM with HCT116 (setting [1]).
`O=c1cc(CN2CCOCC2)occ1OCCCCCOc1ccnc2c(C(F)(F)F)cccc12` [EHT 4687, 5-(5-(8-(Trifluoromethyl)quinolin-4-yloxy)pentyloxy)-2-(morpholinomethyl)-4H-pyran-4-one]: the IC50 amounted to 39.1 µM in the experiment on HMEC1 (Homo sapiens, HMEC-1, 144 h) and 5.5 µM in the experiment with HCT116 (setting [1]).
As to `CC(=O)O[C@H]1C(=O)[C@@]2(C)[C@H]([C@H](OC(=O)c3ccccc3)[C@]3(O)C[C@H](OC(=O)[C@H](O)[C@@H](NC(=O)c4ccccc4)c4ccccc4)C(C)=C1C3(C)C)[C@]1(OC(C)=O)CO[C@@H]1C[C@@H]2O` [Taxol, Paclitaxel, reference compound], the IC50 in the experiment on HMEC1 (Homo sapiens, HMEC-1, 144 h) is 0.0029 µM; with HCT116 (setting [1]), 0.0055 µM; in the experiment with MDA-MB-231 (Homo sapiens, MDA-MB-231, 72 h, 3-day treatment, read-out: IC50, MDA-MB-231 (row labelled Taxol (nM))), 4.25e-06 µM; in the experiment with MDA-MB-231 (setting [3]), 0.0036 µM; in the experiment on NIH 3T3, about 0.05 µM.
For the compound `CC(C)(C)C(=O)N1CCN(Cc2cc(=O)c(OCCCCCSc3ccnc4cc(C(F)(F)F)ccc34)co2)CC1` [EHT 0785, 5-(5-(7-(Trifluoromethyl)quinolin-4-ylthio)pentyloxy)-2-((4-(pivaloyl)piperazin-1-yl)methyl)-4H-pyran-4-one], the 50% inhibitory concentration (IC50) in the experiment on HMEC1 (Homo sapiens, HMEC-1, 144 h) was under 10 µM; in the experiment with HMEC1 it was 9.6 µM; with MDA-MB-231 (setting [2]), 8.2 µM; in the experiment on MDA-MB-231 (setting [3]) it was under 9 µM; in the experiment on NIH 3T3, 11.6 µM. Further, the “difference of activity in HMEC1 cells as compared to HCT116 cells” value in the experiment on HMEC1 (MTT 6 days, compounds most active in HCT116) came out at 5 fold.
For `O=c1cc(CN2CCSCC2)occ1OCCCCCSc1ccnc2cc(C(F)(F)F)ccc12` [EHT 5430, 5-(5-(7-(Trifluoromethyl)quinolin-4-ylthio)pentyloxy)-2-(thiomorpholino-methyl)-4H-pyran-4-one], the IC50 in the experiment with HMEC1 (Homo sapiens, HMEC-1, 144 h) was 20.1 µM; in the experiment with HCT116 (10% FBS), 2.1 µM; in the experiment on HCT116 (setting [1]), under 4 µM.
Consider `O=c1cc(COC2CCCCO2)occ1OCCCCCOc1cccc2ccsc12` (centres unmarked) [EHT 6060, 5-[5-(Benzo[b]thiophen-7-yloxy)-pentyloxy]-2-(tetrahydro-pyran-2-yloxymethyl)-4H-pyran-4-one], for which the IC50 with HMEC1 (Homo sapiens, HMEC-1, 144 h) is 19.1 µM; in the experiment on HCT116 (10% FBS), 2 µM; in the experiment on HCT116 (setting [1]) it was under 4 µM.
With `O=c1cc(COC2CCCCO2)occ1OCCCCCCCSc1ccnc2cc(C(F)(F)F)ccc12` (centres unmarked) [EHT 8883, 5-(7-(7-(Trifluoromethyl)quinolin-4-ylthio)heptyloxy)-2-((tetrahydro-2H-pyran-2-yloxy)methyl)-4H-pyran-4-one], the IC50 is under 10 µM in the experiment on HMEC1 (Homo sapiens, HMEC-1, 144 h) and 8 µM with HMEC1.
Regarding `CCCc1ccc2cccnc2c1OCCCCCOc1coc(COC2CCCCO2)cc1=O` (centres unmarked) [EHT 5810, 5-[5-(7-Propyl-quinolin-8-yloxy)-pentyloxy]-2-(tetrahydro-pyran-2-yloxymethyl)-4H-pyran-4-one], the IC50 in the experiment on HMEC1 (Homo sapiens, HMEC-1, 144 h) turned out to be 15.1 µM; with HCT116 (setting [1]) it was 8.4 µM.
For the compound `Cc1cc(OCCCCCOc2coc(COC3CCCCO3)cc2=O)c2cc(F)ccc2n1` (centres unmarked) [EHT 1593, 5-[5-(6-Fluoro-2-methyl-quinolin-4-yloxy)-pentyloxy]-2-(tetrahydro-pyran-2-yloxymethyl)-4H-pyran-4-one], the concentration for half-maximal inhibition (IC50) in the experiment with HMEC1 (Homo sapiens, HMEC-1, 144 h) is 13.2 µM; with HCT116 (10% FBS), 2.4 µM; with HCT116 (setting [1]), under 4 µM; in the experiment on NIH 3T3, 21.5 µM.
For `CCOC(=O)c1cnc2cc(C(F)(F)F)ccc2c1OCCCCCOc1coc(CN2CCN(C)CC2)cc1=O` [EHT 8791, 4-[5-(6-(4-Methyl-piperazin-1-ylmethyl)-4-oxo-4H-pyran-3-yloxy)-pentyloxy]-7-trifluoromethyl-quinoline-3-carboxylic acid ethyl ester], the IC50 in the experiment on HMEC1 (Homo sapiens, HMEC-1, 144 h) was about 200 µM; in the experiment on HCT116 (setting [1]), about 200 µM.
Consider `CC(C)(C)OC(=O)N1CCN(Cc2cc(=O)c(OCCCCCSc3ccnc4cc(C(F)(F)F)ccc34)co2)CC1` [EHT 9358, tert-Butyl 4-((5-(5-(7-(trifluoromethyl)quinolin-4-ylthio)pentyloxy)-4-oxo-4H-pyran-2-yl)methyl)piperazine-1-carboxylate], for which the IC50 is 18.4 µM with HMEC1 (Homo sapiens, HMEC-1, 144 h); 1 µM in the experiment with HCT116 (Homo sapiens, HCT-116, 144 h, 0.5% FBS); 7.7 µM in the experiment on NIH 3T3.
As to `O=c1cc(CN2CCOCC2)occ1OCCOCCSc1ccnc2cc(C(F)(F)F)ccc12` [EHT 0371, 5-(2-(2-(7-(Trifluoromethyl)quinolin-4-ylthio)ethoxy)ethoxy)-2-(morpholinomethyl)-4H-pyran-4-one], the midpoint of inhibition with HMEC1 (Homo sapiens, HMEC-1, 144 h), the IC50, lay at 88.7 µM.
`CN1CCN(Cc2cc(=O)c(OCCCCCOc3ccnc4cc(C(F)(F)F)ccc34)co2)CC1` [EHT 0079, 5-(5-(7-(Trifluoromethyl)quinolin-4-yloxy)pentyloxy)-2-((4-methylpiperazin-1-yl)methyl)-4H-pyran-4-one]: the IC50 was determined as 28.6 µM in the experiment with HMEC1 (Homo sapiens, HMEC-1, 144 h) and 12.5 µM in the experiment with HCT116 (setting [1]).
As to `O=c1cc(CN2CCOCC2)occ1OCCCCCOc1ccnc2ccc(C(F)(F)F)cc12` [EHT 1426, 5-(5-(6-(Trifluoromethyl)quinolin-4-yloxy)pentyloxy)-2-(morpholinomethyl)-4H-pyran-4-one], inhibition in the experiment with HCT116 (setting [1]) was half-maximal at 18 µM (IC50).
For the compound `CNC(=O)N1CCN(Cc2cc(=O)c(OCCCCCSc3ccnc4cc(C(F)(F)F)ccc34)co2)CC1` [EHT 4495, 4-((5-(5-(7-(Trifluoromethyl)quinolin-4-ylthio)pentyloxy)-4-oxo-4H-pyran-2-yl)methyl)-N-methylpiperazine-1-carboxamide], the results for the half-inhibitory concentration (IC50) with HCT116 (10% FBS) and with HCT116 (setting [1]) were 2.3 µM and under 4 µM, respectively.
`O=c1cc(CN2CCOCC2)occ1OCCCCCOc1ccnc2cc(C(F)(F)F)ccc12` [EHT 3411, 5-(5-(7-(Trifluoromethyl)quinolin-4-yloxy)pentyloxy)-2-(morpholinomethyl)-4H-pyran-4-one]: the IC50 with HMEC1 (Homo sapiens, HMEC-1, 144 h) came to 62.4 µM; with HCT116 (setting [1]) it was 14.1 µM.
